The target of experiment [1] is T1, wt human TYK2, catalytic site (Homo sapiens, UniProt P29597).
T1 construct: wt human TYK2, catalytic site; purchased SignalChem
T1 sequence (P29597 897-1176 limits assumed): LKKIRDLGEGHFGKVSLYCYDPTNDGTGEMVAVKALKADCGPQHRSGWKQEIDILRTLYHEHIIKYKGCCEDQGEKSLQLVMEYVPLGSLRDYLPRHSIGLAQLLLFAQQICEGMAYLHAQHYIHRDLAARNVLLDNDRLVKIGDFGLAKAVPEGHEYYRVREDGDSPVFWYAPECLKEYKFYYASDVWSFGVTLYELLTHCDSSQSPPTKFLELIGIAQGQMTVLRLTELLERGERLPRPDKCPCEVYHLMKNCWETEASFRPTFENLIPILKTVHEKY
The experiment in a line: HTRF KinEASE assay, TYK2. In kind it is biochemical. Conditions: 1 μM ATP; read-out: IC50, Activity Toward TYK2. Summed up: (§1)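 HTRF KinEASE-TK readout with 1 μM biotinylated TK substrate in 1× kinase buffer, ≥30 min at room temperature, then antibody/streptavidin-XL665 detection for 60 min. TYK2 at 2 nM with 1 μM ATP; JAK2 at 1 nM with 100 μM ATP. Analysis uses emission ratios.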
On the technique in general: In TR-FRET formats the signal depends on donor and acceptor labels being close together.

Experiment [2] has as its target T2, wt human NUAK1, full length (Homo sapiens, UniProt O60285).
T2 construct: 8 nM wt human NUAK1, full length (ThermoFisher/USA); purchased ThermoFisher
T2 sequence (O60285 1-661): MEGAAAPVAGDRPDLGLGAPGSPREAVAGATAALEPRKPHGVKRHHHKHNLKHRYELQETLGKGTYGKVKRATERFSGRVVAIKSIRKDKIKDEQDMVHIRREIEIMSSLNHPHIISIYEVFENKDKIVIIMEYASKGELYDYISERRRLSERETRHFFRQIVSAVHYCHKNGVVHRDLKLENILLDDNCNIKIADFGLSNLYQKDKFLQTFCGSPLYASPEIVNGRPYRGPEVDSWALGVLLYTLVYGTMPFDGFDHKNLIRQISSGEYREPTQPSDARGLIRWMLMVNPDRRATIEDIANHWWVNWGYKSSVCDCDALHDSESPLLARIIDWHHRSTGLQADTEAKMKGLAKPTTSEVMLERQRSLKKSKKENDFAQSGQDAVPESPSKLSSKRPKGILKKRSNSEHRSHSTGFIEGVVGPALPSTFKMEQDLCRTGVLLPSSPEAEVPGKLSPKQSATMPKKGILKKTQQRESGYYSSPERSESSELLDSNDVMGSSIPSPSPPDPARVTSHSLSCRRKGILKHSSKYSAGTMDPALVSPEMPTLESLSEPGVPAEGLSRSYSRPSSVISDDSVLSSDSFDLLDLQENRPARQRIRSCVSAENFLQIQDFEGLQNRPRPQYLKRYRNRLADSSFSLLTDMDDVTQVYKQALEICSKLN
The experiment in a line: TR-FRET LanthaScreen Eu Kinase Binding Assay, NUAK1. Conditions: read-out: IC50, Activity Toward NUAK1. In a few lines:
(§2)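 Competitive tracer-displacement TR-FRET, 1 h at room temperature, read as emission ratio. LRRK2 (wt or G2019S catalytic domain) at 5 nM with 2 nM Eu-anti-GST and 10 nM Tracer 236; full-length NUAK1 at 8 nM with 2 nM Eu-anti-His and 5 nM Tracer 236, all final in Kinase Buffer A.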

Experiment [3] concerns the target T3, wt human JAK1, catalytic site (Homo sapiens, UniProt P23458).
T3 construct: wt human JAK1, catalytic site; purchased ThermoFisher
The experiment in a line: HTRF KinEASE assay, JAK1. The conditions noted are these: 2.5 μM ATP; read-out: IC50, Activity Toward JAK1. In kind it is biochemical. Summed up:
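Two-step HTRF KinEASE assay: compound, kinase/biotinylated TK substrate and ATP were incubated at least 30 min at room temperature. Antibody plus streptavidin-XL665 was then added and plates were read after 60 min. Inhibition was derived from emission ratios according to the kit protocol.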

Experiment [4] concerns the target T4, wt human JAK2, catalytic site (Homo sapiens, UniProt O60674).
T4 construct: wt human JAK2, catalytic site; purchased SignalChem
The experiment in a line: HTRF KinEASE assay, JAK2. The conditions noted are these: assay format not given (Z'-LYTE or HTRF KinEASE); read-out: IC50, Activity Toward JAK2. In kind it is biochemical. Summed up:
as §1

The target of experiment [5] is T5, wt human LRRK2, catalytic site (Homo sapiens, UniProt Q5S007).
T5 construct: 5 nM wt human LRRK2, catalytic site; purchased ThermoFisher
T5 sequence (Q5S007 970-2527 limits assumed): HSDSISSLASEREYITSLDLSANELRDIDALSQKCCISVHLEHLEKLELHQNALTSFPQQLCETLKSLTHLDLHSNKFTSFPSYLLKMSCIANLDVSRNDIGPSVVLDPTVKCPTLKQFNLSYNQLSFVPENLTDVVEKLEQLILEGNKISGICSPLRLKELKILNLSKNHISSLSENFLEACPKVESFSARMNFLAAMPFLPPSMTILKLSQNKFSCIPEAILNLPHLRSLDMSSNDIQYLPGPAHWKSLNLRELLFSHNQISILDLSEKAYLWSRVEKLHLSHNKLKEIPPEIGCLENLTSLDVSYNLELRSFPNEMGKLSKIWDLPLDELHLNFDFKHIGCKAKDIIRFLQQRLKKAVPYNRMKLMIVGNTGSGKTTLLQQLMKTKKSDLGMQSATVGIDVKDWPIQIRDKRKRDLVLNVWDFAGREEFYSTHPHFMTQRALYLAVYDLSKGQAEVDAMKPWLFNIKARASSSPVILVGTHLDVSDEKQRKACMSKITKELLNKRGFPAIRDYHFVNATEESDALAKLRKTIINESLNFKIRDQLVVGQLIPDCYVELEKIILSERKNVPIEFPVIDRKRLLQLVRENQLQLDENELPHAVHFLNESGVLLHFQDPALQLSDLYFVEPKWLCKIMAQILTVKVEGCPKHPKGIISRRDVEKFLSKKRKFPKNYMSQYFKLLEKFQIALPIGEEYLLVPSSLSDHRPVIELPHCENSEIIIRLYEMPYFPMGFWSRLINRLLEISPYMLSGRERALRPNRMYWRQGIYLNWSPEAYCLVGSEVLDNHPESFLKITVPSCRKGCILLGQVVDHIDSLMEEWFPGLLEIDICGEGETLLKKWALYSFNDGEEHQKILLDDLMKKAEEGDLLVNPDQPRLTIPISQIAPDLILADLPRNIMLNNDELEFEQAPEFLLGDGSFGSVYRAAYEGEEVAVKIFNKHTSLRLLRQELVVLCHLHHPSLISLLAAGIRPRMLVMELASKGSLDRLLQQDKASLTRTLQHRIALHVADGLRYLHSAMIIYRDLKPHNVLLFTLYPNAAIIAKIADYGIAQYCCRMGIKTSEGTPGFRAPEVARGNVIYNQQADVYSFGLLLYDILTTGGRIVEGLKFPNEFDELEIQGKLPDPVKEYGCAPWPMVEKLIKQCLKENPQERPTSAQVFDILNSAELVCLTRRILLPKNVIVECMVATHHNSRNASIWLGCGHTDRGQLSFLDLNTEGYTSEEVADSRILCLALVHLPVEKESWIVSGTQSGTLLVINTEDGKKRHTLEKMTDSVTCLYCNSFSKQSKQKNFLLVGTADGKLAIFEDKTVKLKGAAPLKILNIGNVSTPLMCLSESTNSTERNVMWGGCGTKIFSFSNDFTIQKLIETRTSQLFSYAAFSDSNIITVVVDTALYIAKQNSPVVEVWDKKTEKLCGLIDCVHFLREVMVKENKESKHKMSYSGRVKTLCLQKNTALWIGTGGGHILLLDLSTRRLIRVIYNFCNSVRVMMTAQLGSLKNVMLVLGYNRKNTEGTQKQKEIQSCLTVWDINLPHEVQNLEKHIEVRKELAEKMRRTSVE
The experiment in a line: TR-FRET LanthaScreen Eu Kinase Binding Assay, LRRK2 wt. The conditions noted are these: one range stated for wt and G2019, read-out: IC50, Activity Toward LRRK2(Wt). In a few lines:
as §2

The target in experiment [6] is T6, G2019S human LRRK2, catalytic site (Homo sapiens, UniProt Q5S007, G2019S).
T6 construct: G2019S human LRRK2, catalytic site; purchased ThermoFisher
T6 sequence (Q5S007 970-2527 G2019S limits assumed): as the sequence (Q5S007 970-2527 limits assumed) above, with G1050S counted along it
The experiment in a line: TR-FRET LanthaScreen Eu Kinase Binding Assay, LRRK2 G2019S. Conditions: LRRK2(G2019); one range stated for wt and G2019; read-out: IC50, Activity Toward LRRK2(G2019). In a few lines:
as §2

Our source for the IC50 values is patent US20230373985A1 (Origenis Gmbh, priority 2020, published 2023).

T3 sequence (P23458 875-1153 limits assumed): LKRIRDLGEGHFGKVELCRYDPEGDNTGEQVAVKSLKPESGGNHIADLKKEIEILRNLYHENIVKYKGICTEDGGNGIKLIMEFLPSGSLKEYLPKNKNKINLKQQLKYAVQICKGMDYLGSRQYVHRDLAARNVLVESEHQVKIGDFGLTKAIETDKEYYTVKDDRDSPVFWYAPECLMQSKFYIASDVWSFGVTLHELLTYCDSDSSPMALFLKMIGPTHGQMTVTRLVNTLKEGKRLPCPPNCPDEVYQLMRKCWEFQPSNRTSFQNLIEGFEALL
T4 sequence (O60674 849-1124 limits assumed): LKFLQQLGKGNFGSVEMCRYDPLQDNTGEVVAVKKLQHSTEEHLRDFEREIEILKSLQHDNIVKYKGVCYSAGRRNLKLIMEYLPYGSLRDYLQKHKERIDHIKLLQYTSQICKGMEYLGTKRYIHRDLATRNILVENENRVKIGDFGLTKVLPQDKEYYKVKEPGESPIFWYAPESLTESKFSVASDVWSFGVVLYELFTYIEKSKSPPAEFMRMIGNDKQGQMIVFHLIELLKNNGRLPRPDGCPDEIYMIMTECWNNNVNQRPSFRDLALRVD

For orientation: IC50 means the concentration that gives 50% inhibition. Regarding `Cn1nnnc1-c1ccc(Nc2nn(-c3c(Cl)cccc3Cl)nc2C(N)=O)cc1` [compound 104], the IC50 in experiment [1] was less than 10 nM; in experiment [2], 100 to 1000 nM; in experiment [3] it was 10 to 100 nM; in experiment [4], 100 to 1000 nM.

Turning to `NC(=O)c1nn(-c2c(F)cccc2Cl)cc1Nc1ccc(C(=O)N2CCOCC2)cc1` [compound 22, 1-(2-chloro-6-fluorophenyl)-4-((4-(morpholine-4-carbonyl)phenyl)amino)-1H-pyrazole-3-carboxamide], the IC50 is less than 10 nM in experiment [1]; 100 to 1000 nM in experiment [5]; 100 to 1000 nM in experiment [6]; 10 to 100 nM in experiment [2]; 10 to 100 nM in experiment [3]; 100 to 1000 nM in experiment [4].

For `CN(C)[C@H]1CCN(C(=O)c2ccc(Nc3nn(-c4c(Cl)cccc4Cl)nc3C(N)=O)cc2)C1` [compound 105, 2-(2,6-Dichloro-phenyl)-5-[4-((S)-3-dimethylamino-pyrrolidine-1-carbonyl)-phenylamino]-2H-[1,2,3]triazole-4-carboxylic acid amide], the IC50 in experiment [1] is less than 10 nM; in experiment [2] it was 100 to 1000 nM; in experiment [3] it was less than 10 nM; in experiment [4], 100 to 1000 nM.

As for `NC(=O)c1nn(-c2c(Cl)cccc2Cl)cc1Nc1ccc(-c2nncn2CC(F)F)cc1` [compound 212, 1-(2,6-dichlorophenyl)-4-((4-(4-(2,2-difluoroethyl)-4H-1,2,4-triazol-3-yl)phenyl)amino)-1H-pyrazole-3-carboxamide], the IC50 was less than 10 nM in experiment [1]; 100 to 1000 nM in experiment [5]; 100 to 1000 nM in experiment [6]; 100 to 1000 nM in experiment [2]; 10 to 100 nM in experiment [3]; 100 to 1000 nM in experiment [4].

Consider `N#Cc1cccc(F)c1-n1cc(Nc2ccc(C(=O)N3CCS(=O)(=O)CC3)cc2)c(C(N)=O)n1` [compound 452, 1-(2-cyano-6-fluorophenyl)-4-((4-(1,1-dioxidothiomorpholine-4-carbonyl)phenyl)amino)-1H-pyrazole-3-carboxamide], for which the half-inhibitory concentration (IC50) in experiment [1] is less than 10 nM; in experiment [5], 100 to 1000 nM; in experiment [6], 100 to 1000 nM; in experiment [2], 100 to 1000 nM; in experiment [3], less than 10 nM; in experiment [4], 100 to 1000 nM.

In the case of `CCn1cnnc1-c1ccc(Nc2cn(-c3c(F)cccc3Cl)nc2C(N)=O)cc1` [compound 207, 1-(2-chloro-6-fluorophenyl)-4-((4-(4-ethyl-4H-1,2,4-triazol-3-yl)phenyl)amino)-1H-pyrazole-3-carboxamide], the IC50 is less than 10 nM in experiment [1]; 100 to 1000 nM in experiment [5]; 100 to 1000 nM in experiment [6]; 100 to 1000 nM in experiment [2]; 10 to 100 nM in experiment [3]; 100 to 1000 nM in experiment [4].

As for `Cn1cnnc1-c1ccc(Nc2cn(-c3c(Cl)cccc3Cl)nc2C(N)=O)cc1` [compound 88, 1-(2,6-dichlorophenyl)-4-((4-(4-methyl-4H-1,2,4-triazol-3-yl)phenyl)amino)-1H-pyrazole-3-carboxamide], the IC50 in experiment [1] is less than 10 nM; in experiment [5], 100 to 1000 nM; in experiment [6], 100 to 1000 nM; in experiment [2] it was 100 to 1000 nM; in experiment [3] it was 10 to 100 nM; in experiment [4] it was 100 to 1000 nM.

`NC(=O)c1nn(-c2c(F)cccc2F)cc1Nc1ccc(C(=O)NC2CCOCC2)cc1` [compound 13, 1-(2,6-difluorophenyl)-4-((4-((tetrahydro-2H-pyran-4-yl)carbamoyl)phenyl)amino)-1H-pyrazole-3-carboxamide]: the IC50 in experiment [1] was in the range of 10 to 100 nM; in experiment [5], 100 to 1000 nM; in experiment [6] it was 100 to 1000 nM; in experiment [2], 10 to 100 nM; in experiment [3], 100 to 1000 nM; in experiment [4] it was 100 to 1000 nM.

With `NC(=O)c1nn(-c2c(Cl)cccc2Cl)cc1Nc1ccc(-c2nncn2C2CC2)cc1` [compound 206, 4-((4-(4-cyclopropyl-4H-1,2,4-triazol-3-yl)phenyl)amino)-1-(2,6-dichlorophenyl)-1H-pyrazole-3-carboxamide], the IC50 in experiment [1] is 10 to 100 nM; in experiment [5], 100 to 1000 nM; in experiment [6], 100 to 1000 nM; in experiment [2], 100 to 1000 nM; in experiment [3], 10 to 100 nM; in experiment [4] it was 100 to 1000 nM.

`CN1CCN(C(=O)c2ccc(Nc3nn(-c4c(Cl)cccc4Cl)nc3C(N)=O)cc2)CC1` [compound 102, 2-(2,6-Dichloro-phenyl)-5-[4-(4-methyl-piperazine-1-carbonyl)-phenylamino]-2H-[1,2,3]triazole-4-carboxylic acid amide]: the IC50 in experiment [1] was less than 10 nM; in experiment [2], 100 to 1000 nM; in experiment [3] it was less than 10 nM; in experiment [4], 100 to 1000 nM.

Regarding `CN1CCN(C(=O)c2ccc(Nc3cn(-c4c(F)cccc4Cl)nc3C(N)=O)cc2)CC1` [compound 36, 1-(2-chloro-6-fluorophenyl)-4-((4-(4-methylpiperazine-1-carbonyl)phenyl)amino)-1H-pyrazole-3-carboxamide], the IC50 in experiment [1] is less than 10 nM; in experiment [5], 10 to 100 nM; in experiment [6], 10 to 100 nM; in experiment [2], 100 to 1000 nM; in experiment [3], 10 to 100 nM; in experiment [4] it was 100 to 1000 nM.

For `NC(=O)c1nn(-c2c(Cl)cccc2Cl)nc1Nc1ccc(C(=O)N2CC[C@@H](F)C2)cc1` [compound 106, 2-(2,6-Dichloro-phenyl)-5-[4-((R)-3-fluoro-pyrrolidine-1-carbonyl)-phenylamino]-2H-[1,2,3]triazole-4-carboxylic acid amide], the IC50 in experiment [1] is less than 10 nM; in experiment [2], 100 to 1000 nM; in experiment [3], 10 to 100 nM; in experiment [4], 100 to 1000 nM.

For `NC(=O)c1nn(-c2c(Cl)cccc2Cl)nc1Nc1ccc(-c2nnn[nH]2)cc1` [compound 103, 2-(2,6-Dichloro-phenyl)-5-[4-(1H-tetrazol-5-yl)-phenylamino]-2H-[1,2,3]triazole-4-carboxylic acid amide], the IC50 lay in the range of 10 to 100 nM in experiment [1], 100 to 1000 nM in experiment [2], 10 to 100 nM in experiment [3] and 100 to 1000 nM in experiment [4].

With `CC(C)Cn1cnnc1-c1ccc(Nc2cn(-c3c(Cl)cccc3Cl)nc2C(N)=O)cc1` [compound 203, 1-(2,6-dichlorophenyl)-4-((4-(4-isobutyl-4H-1,2,4-triazol-3-yl)phenyl)amino)-1H-pyrazole-3-carboxamide], the IC50 was less than 10 nM in experiment [1], 100 to 1000 nM in experiment [2], 10 to 100 nM in experiment [3] and 100 to 1000 nM in experiment [4].

Consider `NC(=O)c1nn(-c2c(Cl)cccc2Cl)nc1Nc1ccc(C(=O)N2CCOCC2)cc1` [compound 101, 2-(2,6-Dichloro-phenyl)-5-[4-(morpholine-4-carbonyl)-phenylamino]-2H-[1,2,3]triazole-4-carboxylic acid amide], for which the IC50 was less than 10 nM in experiment [1], 100 to 1000 nM in experiment [2], less than 10 nM in experiment [3] and 100 to 1000 nM in experiment [4].
